Measurements: PubChem BioAssay (NCI)
Where “and” joins values, the source holds several entries; their conditions need not be identical. Equal entries are not always repeated.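 Tested at 5 concentrations; 48 h exposure; 96-well plates; endpoints linearly interpolated, else capped at highest concentration. Here, GI50 denotes the concentration required for 50% inhibition of growth. Definition used: TGI = concentration required for complete inhibition of growth.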

Legend:
Test in all cases: NCI tumour cell line growth inhibition, 48 h
[1] = tested on: MDA-N
[2] = tested on: DMS 273 small cell lung
[3] = tested on: LXFL 529 NSCLC
[4] = tested on: SNB-78 CNS
[5] = tested on: XF 498 CNS
[6] = tested on: DMS 114 small cell lung
[7] = tested on: HOP-18 NSCLC
[8] = tested on: RXF-631 renal

Row | Structure (SMILES) | TGI [1] | TGI [2] | TGI [3] | TGI [4] | TGI [5] [µM] | TGI [6] [µM] | TGI [7] | TGI [8] [µM] | GI50 [4] | GI50 [1]
1 | O=C1NC(=O)C2=C1CCC2O (stereo not drawn) | > 100 µM |  |  |  |  |  |  |  |  | 
2 | O=C(O)CSCC(=O)c1ccccc1 | > 100 µM |  |  |  |  |  |  |  |  | 
3 | O=C(O)C1CCCN1Cc1c[nH]c2ccccc12 (stereo not drawn) | > 100 µM |  |  |  |  |  |  |  |  | 
4 | O=C1C2c3[nH]c4ccccc4c3C3CCSCC3C2C(=O)N1c1ccccc1 (stereo not drawn) |  | > 100 µM | > 100 µM | > 100 µM | > 100 |  |  |  |  | 
5 | COC(=O)C1Cc2c(n(C)c3ccccc23)C(c2ccccc2)N1 (stereo not drawn) |  | > 100 µM | > 100 µM | > 100 µM |  | > 100 | > 100 µM | > 100 |  | 
6 | Nc1ccc(CCN2CCN(c3cccc(C(F)(F)F)c3)CC2)cc1 |  |  | > 100 µM |  | > 100 | > 100 | > 100 µM | > 100 |  | 
7 | Cc1c2cc[n+](C)cc2c(C)c2c1[nH]c1ccc(OC(C)C)cc12 |  | 10.9 µM and 12.5 µM | 5.04 µM and 11.3 µM | 6.56 µM and > 25.2 µM |  |  | 27.1 µM and 35.4 µM |  | 0.427 µM and 3.93 µM | 
8 | CC1(c2ccccc2)CC12C(=O)NC(=O)NC2=O (stereo not drawn) |  | > 100 µM | > 100 µM | > 100 µM | > 100 | > 100 |  |  |  | 
9 | CC(=O)C(C(=N)C#N)C(=O)Nc1ccccc1 (stereo not drawn) | > 100 µM |  |  |  |  |  |  |  |  | 
10 | O=C1c2cccnc2-c2nc(-c3ccccn3)cc3c2c1nc1ccccc13 | 1.25 µM |  |  |  |  |  |  |  |  | 0.259 µM
11 | Cc1c2ncccc2c(C)c2c1[nH]c1ccc(O)cc12 | 17.9 µM and 47.5 µM |  |  |  |  |  |  |  |  | 9.69 µM
12 | CCC12CCC(O)C1N(C)CCC2Sc1ccccc1 (stereo not drawn) |  | > 100 µM |  | > 100 µM | > 100 | > 100 | > 100 µM | > 100 |  | 
13 | N#C[C@]12CC3(CC[C@H]1CC1(C2)OCCO1)OCCO3 |  | > 100 µM | > 100 µM | > 100 µM |  | > 100 | > 100 µM | > 100 |  | 
14 | CC(=O)CC(=O)CCCC(=O)Nc1ccc(Cl)cc1Cl |  | > 100 µM | > 100 µM |  | > 100 |  | > 100 µM | > 100 |  | 
15 | COc1cccc(/C=C\c2cc(OC)c(OC)c(OC)c2)c1 |  | 39.6 µM | > 100 µM | 58.9 µM | 35.8 | 67.3 |  | > 100 |  | 
16 | Cc1ccc(C)c(NC(=O)CC2C(=O)Nc3ccccc3S2(=O)=O)c1 (stereo not drawn) |  | > 100 µM | > 100 µM | > 100 µM | 61.6 | > 100 |  | > 100 |  | 
17 | C=C1C(=O)OC2C1C(OC(=O)/C(C)=C/C)CC(O)(CCl)C1C(OC(C)=O)C=C(C)C21O (stereo not drawn) | 41.8 µM |  |  |  |  |  |  |  |  | 
18 | CC(C)SC1SCC2C(=O)N(C)C3(CC3C)C(=O)OCC(NC(=O)c3nc4ccccc4cc3O)C(=O)NC(C)C(=O)N(C)C1C(=O)N(C)C1(CC1C)C(=O)OCC(NC(=O)c1nc3ccccc3cc1O)C(=O)NC(C)C(=O)N2C (stereo not drawn) | < 0.0001 µM |  |  |  |  |  |  |  |  | 

Row | Structure (SMILES) | TGI [1] | TGI [2] | TGI [3] | TGI [4] | TGI [5] [µM] | TGI [6] [µM] | TGI [7] | TGI [8] [µM] | GI50 [4] | GI50 [1]
19 | NC(=O)c1csc(C2O[C@@H](COP(=O)(O)OP(=O)(O)OC[C@H]3OC(n4cnc5c(N)ncnc54)[C@H](O)[C@@H]3O)[C@H](O)[C@@H]2O)n1 (stereo partly drawn) |  | > 100 µM | > 100 µM | > 100 µM | > 100 | > 100 | > 100 µM |  |  | 
20 | Cc1ccc(C2=[N+]([O-])c3ccccc3C2=O)cc1 |  |  | 22.9 µM | 74.2 µM | 17.8 | 28.2 | > 100 µM | 51.7 |  | 
21 | Nc1nc(SCC(=O)O)[nH]c(=O)c1N | > 100 µM |  |  |  |  |  |  |  |  | 
22 | CC1=C2C(=CC(C)(CO)C2O)C(=O)C(C)(O)C12CC2 (stereo not drawn) |  | 0.00892 µM | 0.0292 µM | 0.0479 µM |  | 0.00769 | 0.0331 µM | 0.0359 |  | 
23 | O=C(O)C(Cc1ccccc1-c1ccccc1)C(=O)O | > 100 µM |  |  |  |  |  |  |  |  | 
24 | COC1CCC2C(=O)CCCC2O1 (stereo not drawn) |  | > 100 µM | > 100 µM | > 100 µM | > 100 | > 100 | > 100 µM | > 100 |  | 
25 | Cc1cc(N(CCC#N)CCC#N)ccc1N=Nc1ccccc1[N+](=O)[O-] |  | > 100 µM | > 100 µM | > 100 µM | 80.9 | > 100 | > 100 µM | > 100 |  | 
26 | O=c1oc2ccccc2cc1-c1ccc([N+](=O)[O-])cc1 | > 100 µM |  |  |  |  |  |  |  |  | 
27 | CCOC(=O)c1[nH]c2cccc3c2c1CC(Br)C3=O (stereo not drawn) | 24.9 µM |  |  |  |  |  |  |  |  | 
28 | COC(=O)C(=O)C(C(=O)C(=O)Nc1ccc([N+](=O)[O-])cc1[N+](=O)[O-])c1nc2ccc([N+](=O)[O-])cc2[nH]c1=O (stereo not drawn) |  | > 100 µM | > 100 µM | > 100 µM | > 100 | > 100 | > 100 µM | > 100 |  | 
29 | COCC1N=C(c2ccc(OC)c(OCc3ccccc3)c2OC)O[C@H]1c1ccccc1 (stereo partly drawn) |  | 38.6 µM | 65 µM | 96.2 µM |  | 44.9 |  |  |  | 
30 | O=C(c1ccccc1)c1ccc2cccc(O)c2n1 |  | > 100 µM |  | > 100 µM | > 100 | 39.1 | > 100 µM | > 100 |  | 
31 | O=[N+]([O-])c1ccc2c(c1)OCCOCCOc1ccc([N+](=O)[O-])cc1OCCOCCO2 |  | > 100 µM |  | > 100 µM |  | > 100 |  |  |  | 
32 | O=C1CC2(CCCc3sccc32)C(=O)N1 (stereo not drawn) | > 100 µM |  |  |  |  |  |  |  |  | 
33 | CC1/C=C/C=C/CC/C=C/C=C/C=C/C=C/C(OC2OC(C)C(O)C(N)C2O)CC2OC(CC(O)C(O)CCC(O)CC(O)CC(O)CC(=O)OC(C)C(C)C1O)CC(O)C2C(=O)O (stereo not drawn) | 31.8 µM and 46.7 µg/mL |  |  |  |  |  |  |  |  | 25.6 µg/mL
34 | CC(C)(C)C(=O)Nc1ccccc1Br |  | > 100 µM | > 100 µM |  | > 100 | > 100 |  |  |  | 
35 | O=NN(CCCl)C(=O)NCc1ccc[n+]([O-])c1 |  |  | > 100 µM | > 100 µM | > 100 | > 100 |  | > 100 |  | 
36 | O=[N+]([O-])c1ccc(OCCNc2cccc3ccccc23)cc1 |  | > 100 µM | > 100 µM |  | > 100 | > 100 | > 100 µM | > 100 |  | 
